PMC12175168, “Refining the Amino Reactivity-Based Identification of Respiratory Sensitizers” (Chemical Research in Toxicology, 2025)
Values joined by “and” are separate entries in the source; they are usually repeats but may differ in a detail not shown here. Equal values may be shown once. “Also recorded” adds a separate entry of the source. Read-outs that look alike come from different tables or passages of the source. Marks after values point to notes of the source that are not given here.

Key:
[1] = DPRA-like chemoassay with Gly-pNA (24 h percent depletion); settings: PPB pH 7.4, 24 h, 25 °C, 50-fold excess of test compound
Method: (§1) In addition to the kinetic Gly-pNA chemoassay, the reactivity of the 27 compounds toward Gly-pNA and Lys-pNA was determined in terms of percentage depletions after reacting for 24 h at 25 °C employing the following DPRA-like setup: stock solutions for the test compounds were prepared by gravimetrically adding at least 3 mg of the respective compound into a glass vial (total volume 1.8 mL) and subsequent addition of 1 mL ACN. […] The stock solutions for Gly-pNA and Lys-pNA with a final concentration of 1.7 mM were prepared by dissolving the required amount in one of the three aqueous buffer solutions used for this DPRA-like chemoassay: phosphate buffer (80 mM, pH 7.4), phosphate buffer (80 mM, pH 10.2), and ammonium acetate buffer (100 mM, pH 10.2). Glass vials (1.8 mL) were used as reaction vessels.
(§2) In the final reaction mixtures, the concentration of Gly-pNA or Lys-pNA was 0.03 mM, and the test compound was 50 times in excess (1.5 mM). After incubation for 24 h at 25 °C, the free amount of either Gly-pNA or Lys-pNA was determined using the HPLC UV–vis method described for the kinetic Gly-pNA chemoassay. , The percentage depletion of Gly-pNA (D Gly) or Lys-pNA (D Lys) was determined directly from peak areas according to eq 3 Dx[%]=(Axcontrol−Ax/Axcontrol×100)withx=GlyorLys
(§3) In eq , A x and A x ^control are the peak areas of the chromatographic signal of either Gly-pNA (x = Gly) or Lys-pNA (x = Lys) at 315 nm after 24 h incubation with and without test compound, respectively.
(§4) Summary of experimental conditions of the DPRA-like setups used to determine
(§5) DGly, D Lys, and D DPRA data in Table 2 (main text).
(§6) Table S2. Overview of experimental conditions for the DPRA-like setups used to
(§7) determine 24 h percentage depletion rates for the reaction of the test compounds with
(§8) Gly-pNA, Lys-pNA, and the DPRA lysine peptide (literature data).

[2] = DPRA-like chemoassay with Lys-pNA (24 h percent depletion); settings: 25 °C, 50-fold excess of test compound
Method: as §1, §2, §3, §4, §5, §6, §7, §8

[3] = Stability assessment of test compounds in aqueous buffers (half-lives)
Method: To this end, the test compound was dissolved in 1 mL ACN in a glass vial. […] As reaction batches, 1.8 mL glass vials equipped with 400 μL glass inserts were used and filled with 220 μL of the respective aqueous buffer and 80 μL of the test compound stock solution. The depletion of the test compounds was recorded with the HPLC UV–vis instrument used for the kinetic Gly-pNA chemoassay. , Chromatographic separation of the reaction mixture was achieved using the gradient described for the Gly-pNA chemoassay previously , and an isocratic HPLC method (water/ACN 70:30, both with 0.1 vol % formic acid). The wavelengths used for the detection of the compound and the information on the used chromatographic method are given in the Supporting Information in Table S3.

DPRA lysine peptide = tested on: DPRA lysine peptide; set-up: method as in literature; settings: AAB pH 10.2, 24 h; ref literature; cited from earlier work
[4] = ref Krutz et al., Sadekar et al., Ponder et al., Karol et al., Hopkins et al.; cited from earlier work
[5] = Kinetic Gly-pNA chemoassay (second-order rate constant k Gly); settings: reaction with Gly-pNA, nominal test compound concentration; for k Gly ± s(k Gly), second-order rate constant: phosphate buffer 80 mM, 25 °C, ≥ values are minimum reactivity; for log k Gly: phosphate buffer;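 on all read-outs here: Gly-pNA depletion followed over time by chromatographic peak area, with test compound in at least tenfold excess (pseudo-first-order), added from acetonitrile stock, at least three runs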
Method: The reactivity of the 27 test compounds toward Gly-pNA was quantified in terms of the second-order reaction rate constant k Gly using our Gly-pNA chemoassay. , In brief, stock solutions of the test compound were freshly obtained every day by gravimetrically adding the required amount into a 10 mL volumetric flask, which was subsequently filled to volume with acetonitrile (ACN). The required amounts of test compounds depended on their reactivity toward Gly-pNA. […] As usual for kinetic studies, fast reacting chemicals are applied at lower concentrations than little reactive candidates. All stock solutions were stored at 25 °C in a climate chamber before first use (ca. 30 min) and for repeating an experiment (max. 6 h). Gly-pNA stock solution (1.69 mM) was obtained by dissolving 3.3 mg Gly-pNA in 10 mL phosphate buffer solution (80 mM) and could be used for several weeks if stored at 4 °C. For all chemoassay experiments, 1.8 mL glass vials were used as reaction batches, which were initially filled with 1070 μL phosphate buffer (80 mM) and 30 μL Gly-pNA stock solution. To start the reaction, 400 μL of the test compound stock solutions was added. […] The time between the start of the reaction and the first analysis was measured with an electronic time clock. All reactions were performed under pseudo-1st order conditions with the electrophile being at least ten times in excess over Gly-pNA.
For these compounds, the minimum reactivity was estimated in terms of k Gly by plotting ln (A Gly ^ t /A Gly ^0) vs reaction time t (with A Gly ^ t and A Gly ^0 being the peak areas under the chromatographic signal for Gly-pNA at time t and at the beginning of the reaction (t = 0)). Linear regression through 0 (at t = 0) and the first measurement point yields slope s (see Figure S1) which is the pseudo-1st order rate constant k Gly ^pseudo that can be converted with the initial test compound concentration in the reactions mixture (c) into k Gly according to eq . 1 kGly=kGlypseudo/c
2 Ln(AGlyt/AGly0)≈−kGly·c·t+0.5·kGly·kloss·c·t^2 Here k loss is the first order rate constant covering all processes contributing to the loss of the test compounds, except the reaction with Gly-pNA. The regression parameter of the linear part of eq (= k Gly·c) is the pseudo-1st order rate constant k Gly ^pseudo and can be converted into k Gly according to eq (see above).
Linear regression of these plots provides slope s, which is again the pseudo-1st order rate constant, k Gly ^pseudo, and can be used to calculate k Gly according to eq . All experiments to determine k Gly have been conducted at least three times.

[6] = set-up: method as in our previous work; settings: reaction with Gly-pNA; ref our previous work; cited from earlier work
[7] = set-up: method as in our previous work; settings: PPB pH 7.4, 24 h; ref our previous work; cited from earlier work
[8] = AAB (ammonium acetate buffer) pH 10.2, 24 h
[9] = aqueous ammonium acetate buffer with acetonitrile, pH 10.2
[10] = aqueous phosphate buffer with acetonitrile, pH 7.4
[11] = aqueous phosphate buffer with acetonitrile, pH 10.2
[12] = buffer, pH 7.4, half-lives t 1/2 ± s(t 1/2), PPB (phosphate buffer 80 mM) pH 7.4
[13] = buffer, pH 10.2, half-lives t 1/2 ± s(t 1/2), AAP (ammonium acetate buffer 100 mM) pH 10.2
[14] = buffer, pH 10.2, half-lives t 1/2 ± s(t 1/2), PPB (phosphate buffer 80 mM) pH 10.2
[15] = PPB (phosphate buffer 80 mM) pH 7.4

Row | SMILES | D Gly ± s(D Gly), 24 h percent depletion of Gly-pNA [1] | D Lys ± s(D Lys), 24 h percent depletion of Lys-pNA [2, 8] [%] | D Lys ± s(D Lys), 24 h percent depletion of Lys-pNA ([2]; PPB pH 10.2, 24 h) [%] | half-life [3, 9] [min] | half-life [3, 10] [min] | half-life [3, 11] [min] | D DPRA ± s(D DPRA), depletion of the DPRA lysine peptide (DPRA lysine peptide) [%] | Classification as potential respiratory sensitizer or non-sensitizer [4] | k Gly ± s(k Gly), second-order rate constant [5] | log k Gly [5] | k Gly ± s(k Gly), second-order rate constant [6] [L mol^–1 min^–1] | log k Gly [6] | D Gly, 24 h percent depletion of Gly-pNA [7] | half-life [3, 12] [min] | half-life [3, 13] [min] | half-life [3, 14] [min] | half-lives t 1/2 ± s(t 1/2) [3, 15] | half-lives t 1/2 ± s(t 1/2) ([3]; AAP (ammonium acetate buffer 100 mM) pH 10.2) | half-lives t 1/2 ± s(t 1/2) ([3]; PPB (phosphate buffer 80 mM) pH 10.2)
1 | O=C(O)c1ccc2c(c1)C(=O)OC2=O [C2, trimellitic anhydride] | 100% | 15.2 ± 0.6 | 100 | < 1 | 110 ± 10 | 1 | 59.9 ± 22.0 | potential respiratory sensitizer | ≥22271 ± 1975 L mol^–1 min^–1 | 4.35 | – | – | – | – | – | – | – | – | –
2 | O=CCCCC=O [G1, glutaraldehyde] | – | 7.2 ± 1.7 | 97.9 ± 0.6 | – | – | – | 82.8 ± 7.6 | – | – | – | 17731 ± 2525 | 4.25 | 100 ^c % | – | – | – | – | – | –
3 | O=C=Nc1ccccc1 [A5, phenyl isocyanate] | 100% | 10.2 ± 0.7 | 100 | – | – | – | 48.4 ± 1.1 | potential respiratory sensitizer | ≥2368 ± 309 L mol^–1 min^–1 | ≥3.37 | – | – | – | < 1 | < 1 | < 1 | – | – | –
4 | C=CC(=O)OCC [F4, ethyl acrylate] | 14.4 ± 0.6% | 55.8 ± 0.4 | 67.1 ± 1.4 | 880 ± 119 | – | 1350 ± 172 | 90.3 ± 6.6 | non-sensitizer | 0.0795 ± 0.0001 L mol^–1 min^–1 | – | – | – | – | – | – | – | no depletion | – | –
5 | C=CC(=O)OCCCC [F3, butyl acrylate] | 15.2 ± 0.2% | 61.3 ± 0.4 | 74.4 ± 1.5 | – | – | – | 87.8 ± 3.8 | non-sensitizer | 0.0826 ± 0.0141 L mol^–1 min^–1 | –1.08 | – | – | – | – | 929 ± 59 | 4250 ± 1800 | no depletion | – | –
6 | C=CC(=O)OC [F2, methyl acrylate] | 16.6 ± 0.4% | 55.5 ± 0.7 | 67.9 ± 1.6 | – | – | – | 86.5 ± 5.2 | non-sensitizer | 0.108 ± 0.005 L mol^–1 min^–1 | –0.97 | – | – | – | – | 629 ± 48 | 943 ± 63 | no depletion | – | –
7 | O=C1OC(=O)C2CCCCC12 (stereo not drawn) [D1, hexahydrophthalic anhydride] | 100% | 12.5 ± 0.5 | 100 | < 1 | 4.36 ± 0.36 | 1.2 | 56.4 ± 29.4 | potential respiratory sensitizer | 2900 ± 110 L mol^–1 min^–1 | 3.46 | – | – | – | – | – | – | – | – | –
8 | O=C=Nc1ccc(Cc2ccc(N=C=O)cc2)cc1 [A4, 4,4′-methylene diphenyl diisocyanate] | 100% | 22.9 ± 4.4 | 100 | – | – | – | 23.0 ± 6.2 | potential respiratory sensitizer | ≥20015 ± 4486 L mol^–1 min^–1 | – | – | – | – | 5.9 ± 1 | < 1 | 4.6 ± 0.3 | – | – | –
9 | O=[N+]([O-])c1ccc(S(=O)(=O)O)c([N+](=O)[O-])c1 [E5, 2,4-dinitrobenzenesulfonic acid] | 5.9% and 5.9 ± 0.3% | 0.9 ± 0.1 | 0 | – | – | – | 27.4 | non-sensitizer | not reactive | – | – | – | – | – | – | – | no depletion | did not show any significant signal depletion; also recorded: no depletion | no depletion
10 | O=C1OC(=O)c2ccccc21 [C1, phthalic anhydride] | 100% | 22.6 ± 7.4 | 100 | < 1 | 89.5 ± 4.1 | < 1 | 69.2 ± 22.0 | potential respiratory sensitizer | ≥22480 ± 1197 L mol^–1 min^–1 | – | – | – | – | – | – | – | – | – | –
11 | Cc1c(N=C=O)cccc1N=C=O [A3, 2,6-toluene diisocyanate] | 100% | 20.7 ± 1.4 | 100 | – | – | – | 26.5 ± 0.7 | potential respiratory sensitizer | ≥20880 ± 695 L mol^–1 min^–1 | ≥4.32 | – | – | – | < 1 | < 1 | < 1 | – | – | –
12 | O=C1OC2(c3ccc(O)cc3Oc3cc(O)ccc32)c2ccc(N=C=S)cc21 [B3, fluorescein isothiocyanate] | 100% | 56.5 ± 0.3 | 100 | – | – | – | 61.1 | potential respiratory sensitizer | 15.1 ± 2.6 L mol^–1 min^–1 | – | – | – | – | – | 8.21 ± 0.18 | 3500 ± 236 | no depletion | – | –
